# Test results from ChEMBL document CHEMBL1150936, “Antioxidative bromoindole derivatives from the mid-intestinal gland of the muricid gastropod Drupella fragum” (J Nat Prod, 1998).
# Assay: Antioxidant activity assessed as peroxide value relative to control
# Format: functional
row,Structure (SMILES),Activity (milliequivalent/kg)
1,Cc1c(C)c2c(c(C)c1O)CC[C@@](C)(CCC[C@H](C)CCC[C@H](C)CCCC(C)C)O2,0.062
2,Oc1c(Br)cc2[nH]ccc2c1O,0.194
3,Oc1cc(Br)c(O)c2[nH]ccc12,0.106
4,Cc1cc(C(C)(C)C)c(O)c(C(C)(C)C)c1,0.031
5,Oc1cc2cc[nH]c2cc1Br,0.036
